According to BindingDB's records for doi:10.1016/s0960-894x(02)00302-5 (Wyeth Research, 2002):

These molecules were tested against Proto-oncogene tyrosine-protein kinase Src (Homo sapiens, UniProt P12931) (assay: Kinase inhibition Assay). Details: pH 7.5; 30 °C.
Method: Src kinase activity was measured in an ELISA format. IC50 is the inhibitor concentration which inhibits 50% of kinase activity that catalyzes the transfer of the terminal phosphate from ATP to the substrate.

Chain of Proto-oncogene tyrosine-protein kinase Src (P12931 2-536 limits assumed): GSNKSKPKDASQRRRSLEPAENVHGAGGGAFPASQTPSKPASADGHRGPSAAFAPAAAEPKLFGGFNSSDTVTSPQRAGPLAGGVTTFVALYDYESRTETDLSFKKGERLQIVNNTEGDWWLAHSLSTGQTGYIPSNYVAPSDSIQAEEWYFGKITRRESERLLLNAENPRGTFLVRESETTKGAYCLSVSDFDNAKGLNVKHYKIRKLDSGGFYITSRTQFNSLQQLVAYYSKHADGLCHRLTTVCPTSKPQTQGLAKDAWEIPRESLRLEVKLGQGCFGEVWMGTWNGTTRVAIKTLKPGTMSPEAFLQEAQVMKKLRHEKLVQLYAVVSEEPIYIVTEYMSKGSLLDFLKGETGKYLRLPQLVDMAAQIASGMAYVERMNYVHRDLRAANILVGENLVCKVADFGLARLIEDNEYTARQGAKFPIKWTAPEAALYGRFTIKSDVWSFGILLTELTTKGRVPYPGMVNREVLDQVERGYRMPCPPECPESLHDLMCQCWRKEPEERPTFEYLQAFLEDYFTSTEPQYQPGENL

Row | IC50 [nM] | Compound
1 | 4.2 | COc1cc(Nc2c(C#N)cnc3cc(-c4ccc(CN5CCCCC5)s4)ccc23)c(Cl)cc1Cl [4-[(2,4-dichloro-5-methoxyphenyl)amino]-7-[5-(piperidin-1-ylmethyl)thiophen-2-yl]quinoline-3-carbonitrile]
2 | 2 | COc1cc(Nc2c(C#N)cnc3cc(-c4ccc(CN5CCC(O)CC5)s4)ccc23)c(Cl)cc1Cl [4-[(2,4-dichloro-5-methoxyphenyl)amino]-7-{5-[(4-hydroxypiperidin-1-yl)methyl]thiophen-2-yl}quinoline-3-carbonitrile]
3 | 4.4 | COc1cc(Nc2c(C#N)cnc3cc(-c4ccc(CN5CCSCC5)s4)ccc23)c(Cl)cc1Cl [4-[(2,4-dichloro-5-methoxyphenyl)amino]-7-[5-(thiomorpholin-4-ylmethyl)thiophen-2-yl]quinoline-3-carbonitrile]
